{
  "source": "paper PMC3005307",
  "about": "(Chemistry & biology, 2010)",
  "key": {"TcdB holotoxin [1]": {"tested_on": "TcdB holotoxin", "assay_type": "cell-based, human"}, "TcdB holotoxin [2]": {"tested_on": "TcdB holotoxin", "assay_type": "cell-based, human", "remark": "listed apart in the source"}, "TcdB CPD": {"molecular_target": "TcdB CPD (Clostridioides difficile, UniProt P18177)", "sequence (P18177 1-804 limits assumed)": "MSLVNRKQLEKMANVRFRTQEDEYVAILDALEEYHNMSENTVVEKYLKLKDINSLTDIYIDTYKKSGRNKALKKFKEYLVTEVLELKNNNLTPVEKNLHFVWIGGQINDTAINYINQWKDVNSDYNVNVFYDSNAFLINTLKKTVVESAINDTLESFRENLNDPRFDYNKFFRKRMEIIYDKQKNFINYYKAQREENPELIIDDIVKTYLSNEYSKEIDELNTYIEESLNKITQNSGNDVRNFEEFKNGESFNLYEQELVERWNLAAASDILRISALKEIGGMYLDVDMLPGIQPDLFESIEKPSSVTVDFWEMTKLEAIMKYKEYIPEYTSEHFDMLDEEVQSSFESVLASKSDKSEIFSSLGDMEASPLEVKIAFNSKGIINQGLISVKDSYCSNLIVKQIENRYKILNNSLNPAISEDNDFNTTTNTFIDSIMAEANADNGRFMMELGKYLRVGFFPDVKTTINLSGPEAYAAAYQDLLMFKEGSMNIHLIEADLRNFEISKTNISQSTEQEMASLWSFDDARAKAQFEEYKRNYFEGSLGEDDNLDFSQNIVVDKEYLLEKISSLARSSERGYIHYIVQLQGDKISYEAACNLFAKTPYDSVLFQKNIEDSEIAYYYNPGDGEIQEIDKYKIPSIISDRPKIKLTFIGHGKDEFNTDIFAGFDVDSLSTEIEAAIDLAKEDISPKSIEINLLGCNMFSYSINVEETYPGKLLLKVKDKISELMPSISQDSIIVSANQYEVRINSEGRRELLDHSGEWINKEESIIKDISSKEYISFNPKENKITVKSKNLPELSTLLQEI", "assay_type": "biochemical, Clostridium difficile", "conditions": "autocleavage assay"}},
  "note": "“Also recorded” adds a separate entry of the source.",
  "data": [
    {"substance": "JPM-OEt", "values": [
      {"measurement": "effect on holotoxin-mediated cell rounding", "setting": "TcdB holotoxin [1]", "value": "failed to inhibit toxin function; also recorded: no effect on toxin function"},
      {"measurement": "effect on Rac1 glucosylation by holotoxin", "setting": "TcdB holotoxin [2]", "value": "no effect on toxin function"},
      {"measurement": "inhibition of CPD activity", "setting": "TcdB CPD", "value": "poorly inhibit CPD activity"}
    ]}
  ]
}
